Test results reported in ChEMBL document CHEMBL3763031, “Design, synthesis and biological evaluation of monobactams as antibacterial agents against gram-negative bacteria” (2016).
Values after ≈ are worked out from the molar mass of the structure shown.

Legend:
Salmonella typhi = assay: Antibacterial activity against beta-lactamase producing Salmonella typhi H901 after 18 hrs by agar dilution assay; assay type: functional, Salmonella enterica subsp. enterica serovar Typhi; settings: Salmonella enterica, H901, 18 h
Proteus mirabilis = assay: Antibacterial activity against beta-lactamase producing Proteus mirabilis 09-1 after 18 hrs by agar dilution assay; assay type: functional; settings: 09-1, 18 h
Proteus vulgaris = assay: Antibacterial activity against beta-lactamase producing Proteus vulgaris 29905 after 18 hrs by agar dilution assay; assay type: functional; settings: Proteus vulgaris, 29905, 18 h
Providencia rettgeri = assay: Antibacterial activity against Providencia rettgeri 31052 after 18 hrs by agar dilution assay; assay type: functional; settings: Providencia rettgeri, 31052, 18 h
Morganella morganii = assay: Antibacterial activity against beta-lactamase producing Morganella morganii 25830 after 18 hrs by agar dilution assay; assay type: functional; settings: Morganella morganii, 25830, 18 h
Serratia marcescens = assay: Antibacterial activity against beta-lactamase producing Serratia marcescens 41002 after 18 hrs by agar dilution assay; assay type: functional; settings: Serratia marcescens, 41002, 18 h
Klebsiella aerogenes = assay: Antibacterial activity against beta-lactamase producing Enterobacter aerogenes 45102 after 18 hrs by agar dilution assay; assay type: functional; settings: Klebsiella aerogenes, 45102, 18 h
Enterobacter cloacae = assay: Antibacterial activity against beta-lactamase producing Enterobacter cloacae 45301 after 18 hrs by agar dilution assay; assay type: functional; settings: Enterobacter cloacae, 45301, 18 h
Escherichia coli [1] = assay: Selectivity ratio of MIC for Escherichia coli BL21 to MIC for acrAB and acrEF knock-out Escherichia coli BL21; assay type: functional
Klebsiella pneumoniae [2] = assay: Antibacterial activity against ESBL negative Klebsiella pneumoniae 7 after 18 hrs by agar dilution assay; assay type: functional; settings: Klebsiella pneumoniae, 7, 18 h
Klebsiella pneumoniae [3] = assay: Antibacterial activity against NDM-1 positive Klebsiella pneumoniae BAA-2146 after 18 hrs by agar dilution assay; assay type: functional; settings: BAA-2146, 18 h
Klebsiella pneumoniae [4] = assay: Antibacterial activity against ESBL negative Klebsiella pneumoniae 09-8 after 18 hrs by agar dilution assay; assay type: functional; settings: 09-8, 18 h
Pseudomonas aeruginosa [5] = assay: Antibacterial activity against BL positive Pseudomonas aeruginosa 09-14 after 18 hrs by agar dilution assay; assay type: functional; settings: 09-14, 18 h
Pseudomonas aeruginosa [6] = assay: Antibacterial activity against BL positive Pseudomonas aeruginosa PAO1 after 18 hrs by agar dilution assay; assay type: functional; settings: PAO1, 18 h
Pseudomonas aeruginosa [7] = assay: Antibacterial activity against BL positive Pseudomonas aeruginosa 27853 after 18 hrs by agar dilution assay; assay type: functional; settings: Pseudomonas aeruginosa, 27853, 18 h
Klebsiella pneumoniae [8] = assay: Antibacterial activity against ESBL positive Klebsiella pneumoniae 09-25 after 18 hrs by agar dilution assay; assay type: functional; settings: 09-25, 18 h
Klebsiella pneumoniae [9] = assay: Antibacterial activity against ESBL positive Klebsiella pneumoniae 700603 after 18 hrs by agar dilution assay; assay type: functional; settings: Klebsiella pneumoniae, 700603, 18 h
Escherichia coli [10] = assay: Antibacterial activity against ESBL negative Escherichia coli 09-20 after 18 hrs by agar dilution assay; assay type: functional; settings: 09-20, 18 h
Escherichia coli [11] = assay: Antibacterial activity against ESBL positive Escherichia coli 09-1 after 18 hrs by agar dilution assay; assay type: functional; settings: 09-1, 18 h
Escherichia coli [12] = assay: Antibacterial activity against ESBL negative Escherichia coli 1515 after 18 hrs by agar dilution assay; assay type: functional; settings: Escherichia coli, 1515, 18 h
Escherichia coli [13] = assay: Antibacterial activity against ESBL negative Escherichia coli 25922 after 18 hrs by agar dilution assay; assay type: functional; settings: Escherichia coli, 25922, 18 h
Citrobacter freundii = assay: Antibacterial activity against beta-lactamase producing Citrobacter freundii 43864 after 18 hrs by agar dilution assay; assay type: functional; settings: Citrobacter freundii, 43864, 18 h
Escherichia coli [14] = assay: Antibacterial activity against acrAB and acrEF knock-out Escherichia coli BL21 by microbroth dilution assay; assay type: functional
Escherichia coli [15] = assay: Antibacterial activity against Escherichia coli BL21 by microbroth dilution assay; assay type: functional

SMILES	MIC (Salmonella typhi) [µg/mL]	MIC (Proteus mirabilis) [µg/mL]	MIC (Proteus vulgaris) [µg/mL]	MIC (Providencia rettgeri) [µg/mL]	MIC (Morganella morganii) [µg/mL]	MIC (Serratia marcescens) [µg/mL]	MIC (Klebsiella aerogenes) [µg/mL]	MIC (Enterobacter cloacae) [µg/mL]	MIC (Klebsiella pneumoniae [2]) [µg/mL]	MIC (Klebsiella pneumoniae [3]) [µg/mL]	MIC (Klebsiella pneumoniae [4]) [µg/mL]	MIC (Pseudomonas aeruginosa [5]) [µg/mL]	MIC (Pseudomonas aeruginosa [6]) [µg/mL]	MIC (Pseudomonas aeruginosa [7]) [µg/mL]	MIC (Klebsiella pneumoniae [8]) [µg/mL]	MIC (Klebsiella pneumoniae [9]) [µg/mL]	MIC (Escherichia coli [10]) [µg/mL]	MIC (Escherichia coli [11]) [µg/mL]	MIC (Escherichia coli [12]) [µg/mL]	MIC (Escherichia coli [13]) [µg/mL]	other results
CCN(CC)CC.C[C@H]1[C@H](NC(=O)/C(=N\OCc2ccc(C(=O)N/N=C/c3ccc(O)cc3O)cc2)c2csc(N)n2)C(=O)N1S(=O)(=O)O (relative stereo)	8	1	0.5	≤ 0.03	0.12	4	4	4	2	> 64	32	16	16	16	> 64	64	64	64	0.25	8	Selectivity ratio (Escherichia coli [1]): >16; MIC (Citrobacter freundii): 8 µg/mL
CCN(CC)CC.C[C@H]1[C@H](NC(=O)/C(=N\OCc2ccc(C(=O)N/N=C/c3cccs3)cc2)c2csc(N)n2)C(=O)N1S(=O)(=O)O (relative stereo)	1	4	0.06	≤ 0.03	1	2	2	1	2	> 64	8	32	64	64	> 64	64	64	64	4	4	Selectivity ratio (Escherichia coli [1]): >16; MIC (Escherichia coli [14]): ≤ 0.06 µg/mL; MIC (Escherichia coli [15]): 2 µg/mL; MIC (Citrobacter freundii): 2 µg/mL
CN(C)[C@@H]1C(O)=C(C(N)=O)C(=O)[C@@]2(O)C(O)=C3C(=O)c4c(O)cccc4[C@@](C)(O)[C@H]3C[C@@H]12 [TETRACYCLINE]	–	–	–	–	–	–	–	–	–	–	–	–	–	–	–	–	–	–	–	–	MIC (Escherichia coli [14]): 0.25 µg/mL (≈ 0.563 µM); MIC (Escherichia coli [15]): 0.5 µg/mL (≈ 1.13 µM)
CCN(CC)CC.Cc1ccc(O)c(/C=N/NC(=O)c2ccc(CO/N=C(\C(=O)N[C@@H]3C(=O)N(S(=O)(=O)O)[C@H]3C)c3csc(N)n3)cc2)c1 (relative stereo)	8	2	1	0.06	0.12	8	8	4	2	> 64	32	32	32	32	> 64	64	64	64	0.25	8	MIC (Citrobacter freundii): 8 µg/mL
CCN(CC)CC.C[C@H]1[C@H](NC(=O)/C(=N\OCc2ccc(C(=O)N/N=C/c3ncc[nH]3)cc2)c2csc(N)n2)C(=O)N1S(=O)(=O)O	1	2	0.125	0.06	0.25	4	2	1	8	> 64	8	32	32	32	> 64	64	64	64	8	4	MIC (Escherichia coli [14]): ≤ 0.06 µg/mL; MIC (Escherichia coli [15]): 1 µg/mL; MIC (Citrobacter freundii): 2 µg/mL
CCN(CC)CC.C[C@H]1[C@H](NC(=O)/C(=N\OCc2ccc(C(=O)N/N=C/c3ccc4ccccc4c3O)cc2)c2csc(N)n2)C(=O)N1S(=O)(=O)O	8	1	1	≤ 0.03	0.06	8	8	4	2	> 64	32	16	16	16	> 64	> 64	64	64	0.25	4	MIC (Citrobacter freundii): 8 µg/mL
Cn1cc(CO/N=C(\C(=O)N[C@@H]2C(=O)N(S(=O)(=O)O)C2(C)C)c2csc(N)n2)nn1	> 64	2 (≈ 4.36 µM)	0.125 (≈ 0.273 µM)	0.06 (≈ 0.131 µM)	0.125 (≈ 0.273 µM)	8 (≈ 17.4 µM)	8 (≈ 17.4 µM)	2 (≈ 4.36 µM)	2 (≈ 4.36 µM)	64 (≈ 140 µM)	8 (≈ 17.4 µM)	> 64	> 64	> 64	8 (≈ 17.4 µM)	> 64	8 (≈ 17.4 µM)	2 (≈ 4.36 µM)	4 (≈ 8.72 µM)	4 (≈ 8.72 µM)	MIC (Citrobacter freundii): 4 µg/mL (≈ 8.72 µM)
